Assay results published in ChEMBL document CHEMBL1128167, “(3R, 4S)-3-Benzyl-4-bromomethyloxetan-2-one, a fast acting alternate substrate inhibitor of -chymotrypsin” (Bioorg Med Chem Lett, 1995).

Assays:
Chymotrypsinogen B [1] = target: T1, Chymotrypsinogen B (Homo sapiens, UniProt P17538); experiment: (§1) Inhibition of Alpha-chymotrypsin was determined by competitive substrate assay method
Chymotrypsinogen B [2] = target: T1, Chymotrypsinogen B; experiment: as §1; remark: listed apart in the source

T1 sequence (P17538 34-164 limits assumed, other chains not shown): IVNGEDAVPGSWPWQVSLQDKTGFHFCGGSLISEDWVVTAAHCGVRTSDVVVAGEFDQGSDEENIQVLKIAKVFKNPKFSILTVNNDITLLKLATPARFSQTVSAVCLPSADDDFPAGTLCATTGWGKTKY
T1 sequence (P17538 167-263 limits assumed, other chains not shown): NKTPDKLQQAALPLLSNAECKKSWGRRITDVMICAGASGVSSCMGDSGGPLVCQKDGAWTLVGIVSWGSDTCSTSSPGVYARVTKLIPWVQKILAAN

Ki (Chymotrypsinogen B [1]): 2550 nM | Ka (Chymotrypsinogen B [2]): 2.94 min⁻¹
SMILES: O=C1O[C@H](CBr)[C@H]1Cc1ccccc1
